For this assay, the system named is Bacillus amyloliquefaciens LN. Type of assay: cell-based.

This is an account of results in US20160270428A1 (priority 2015, published 2016).

Take `NCC[C@H](O)C(=O)N[C@@H]1C[C@H](N)[C@@H](O[C@H]2O[C@H](CN)[C@@H](O)[C@H](O)[C@H]2O)[C@H](O)[C@H]1O[C@H]1O[C@H](CO)[C@@H](O)[C@H](N)[C@H]1O` [Amikacin]: the “Zone diameter of LN” value was 23.0 ± 0.8 mm.

For the compound `CC1(C)S[C@@H]2[C@H](NC(=O)[C@H](N)c3ccccc3)C(=O)N2[C@H]1C(=O)O` [Ampicillin], the “Zone diameter of LN” value was 16.2 ± 1.0 mm; the “sensitivity of LN strain to the antibiotic according to CLSI” value was “no antibiotics sensitivity and resistance”.

On to `Cn1nnnc1SCC1=C(C(=O)O)N2C(=O)[C@@H](NC(=O)[C@H](O)c3ccccc3)[C@H]2SC1` [Cefamandol], for which the “Zone diameter of LN” value is 38.2 ± 7.1 mm.

As for `CO[C@@]1(NC(=O)Cc2cccs2)C(=O)N2C(C(=O)O)=C(COC(N)=O)CS[C@@H]21` [Cefoxitin], the “Zone diameter of LN” value is 27.6 ± 1.5 mm.

Regarding `CC(=O)OCC1=C(C(=O)O)N2C(=O)[C@@H](NC(=O)Cc3cccs3)[C@H]2SC1` [Cephalothin], the “Zone diameter of LN” value is recorded as 36.8 ± 1.7 mm.

`O=C(N[C@H](CO)[C@H](O)c1ccc([N+](=O)[O-])cc1)C(Cl)Cl` [Chloramphenicol]: the “Zone diameter of LN” value was 30.7 ± 5.9 mm.

With `CC[C@H]1OC(=O)[C@H](C)[C@@H](O[C@H]2C[C@@](C)(OC)[C@@H](O)[C@H](C)O2)[C@H](C)[C@@H](O[C@@H]2O[C@H](C)C[C@H](N(C)C)[C@H]2O)[C@](C)(O)C[C@@H](C)C(=O)[C@H](C)[C@@H](O)[C@]1(C)O` [Erythromycin], the “Zone diameter of LN” value was determined as 24.5 ± 1.5 mm.

For the compound `C[C@@H](O)[C@H]1C(=O)N2C(C(=O)O)=C(SCCN=CN)C[C@H]12` [Imipeneem], the “Zone diameter of LN” value is 29.5 ± 0.2 mm.

With `NC[C@H]1O[C@H](O[C@H]2[C@H](O)[C@@H](O[C@H]3O[C@H](CO)[C@@H](O)[C@H](N)[C@H]3O)[C@H](N)C[C@@H]2N)[C@H](O)[C@@H](O)[C@@H]1O` [Kanamycin], the “Zone diameter of LN” value amounted to 34.0 ± 0.4 mm.

For `O=C1CN(/N=C/c2ccc([N+](=O)[O-])o2)C(=O)N1` [Nitrofurantoin], the “Zone diameter of LN” value is on record as 17.3 ± 0.6 mm.

`CCn1cc(C(=O)O)c(=O)c2cc(F)c(N3CCNCC3)cc21` [Norfloxacin]: the “Zone diameter of LN” value turned out to be 24.7 ± 0.8 mm.

As to `Cc1onc(-c2ccccc2)c1C(=O)N[C@@H]1C(=O)N2[C@@H]1SC(C)(C)[C@@H]2C(=O)O` [Oxacillin], the “Zone diameter of LN” value is recorded as 14.3 ± 0.6 mm.

Take `[H]/N=C(/N)N[C@H]1[C@H](O)[C@@H](O)[C@H](O[C@@H]2O[C@@H](C)[C@](O)(C=O)[C@H]2O[C@@H]2O[C@@H](CO)[C@H](O)[C@@H](O)[C@@H]2NC)[C@@H](N/C(N)=N\[H])[C@@H]1O` [Streptomycin]: the “Zone diameter of LN” value is 14.3 ± 0.5 mm; the “sensitivity of LN strain to the antibiotic according to CLSI” value is “no antibiotics sensitivity and resistance”.

On to `CN(C)[C@@H]1C(O)=C(C(N)=O)C(=O)[C@@]2(O)C(O)=C3C(=O)c4c(O)cccc4[C@@](C)(O)[C@H]3C[C@@H]12` [Tetracycline], for which the “Zone diameter of LN” value is on record as 15.3 ± 1.1 mm.

For the compound `NC[C@H]1O[C@H](O[C@H]2[C@H](O)[C@@H](O[C@H]3O[C@H](CO)[C@@H](O)[C@H](N)[C@H]3O)[C@H](N)C[C@@H]2N)[C@H](N)C[C@@H]1O` [Tobramycin], the “Zone diameter of LN” value is on record as 22.4 ± 1.8 mm.

`CN[C@H](CC(C)C)C(=O)N[C@H]1C(=O)N[C@@H](CC(N)=O)C(=O)N[C@H]2C(=O)N[C@H]3C(=O)N[C@H](C(=O)N[C@H](C(=O)O)c4cc(O)cc(O)c4-c4cc3ccc4O)[C@H](O)c3ccc(c(Cl)c3)Oc3cc2cc(c3O[C@@H]2O[C@H](CO)[C@@H](O)[C@H](O)[C@H]2O[C@H]2C[C@](C)(N)[C@H](O)[C@H](C)O2)Oc2ccc(cc2Cl)[C@H]1O` [Vancomycin]: the “Zone diameter of LN” value was determined as 19.0 ± 0.8 mm.

On to Cefoxime, for which the “Zone diameter of LN” value was 28.7 ± 7.0 mm.

Take Gentamicin: the “Zone diameter of LN” value was found to be 35.0 ± 9.6 mm.

Regarding Neomycin, the “Zone diameter of LN” value is listed as 20.9 ± 2.3 mm.
